Test results: publication PMC12051620, “Molecular basis underlying the specificity of an antagonist AA92593 for mammalian melanopsins” (The Journal of Biological Chemistry, 2025)

What was measured:
Assay in all cases: GsX GloSensor assay with Gsα/q11
Type in all cases: cell-based, Branchiostoma lanceolatum
Details in all cases: 16.7 μM AA92593, COS-1 cells
[1] = test system: lanceolatum melanopsin F189^ECL2W mutant
Text: (§1) We assessed the effect of the antagonist on the mutants using the GsX GloSensor assay with Gsα/q11. […] Furthermore, the double substitution F189^ECL2W/I207^5.42F further increased the susceptibility of the lanceolatum melanopsin to the antagonist by ∼88% (Fig. 7, G, H, and I). The AA92593-induced inhibition of the double mutant F189^ECL2W/I207^5.42F was as efficient as that of human melanopsin (Fig. 7I). […] Taken together, the introduction of Trp-189^ECL2 and Phe-207^5.42 rendered lanceolatum melanopsin highly sensitive to the antagonist (Fig. 7, G, H, and I).
(§2) For GloSensor assay, opsins, GloSensor assay sensor (coded by pGlo-22F), and NanoBiT-tagged G proteins were transiently expressed in COS-1 cells (kindly provided from Dr David Farrens, Oregon Health and Science University) using PEI as described previously ([24], [52]). For the GsX GloSensor assay ([12], [13]), each well of a 96-well assay plate (Corning) was transfected with 50 ng opsin plasmid, 16.7 ng G protein plasmid, 50 ng pGlo-22F plasmid (Promega), and 500 ng PEI in 25 μl Opti-mem and 75 μl Dulbecco's modified Eagle's medium (D-MEM). For NanoBiT G protein dissociation assay, each well of a 96-well assay plate was transfected with 50 ng opsin plasmid, 5 ng Lg-BiT inserted Gqα (Gqα-LgBiT) plasmid, 25 ng Gβ1 plasmid, 25 ng Sm-BiT fused Gγ2 plasmid, 5 ng RIC8A plasmid, and 500 ng PEI in 25 μl Opti-mem and 75 μl D-MEM. For GFP-fluorescence microscopy, a 35-mm cell culture dish (IWAKI) was transfected with 2 μg melanopsin-GFP plasmid and 8 μg PEI in 400 μl Opti-mem and 1.2 ml D-MEM. […]
(§3) The transfected COS-1 cells were incubated at 37 °C, 5% CO2 for 2 days, and the medium was aspirated and exchanged with 50 μl of HBSS (145 mM NaCl, 10 mM D-glucose, 5 mM KCl, 1 mM MgCl2, 1.7 mM CaCl2, 1.5 mM NaHCO3, 10 mM Hepes, pH 7.4), containing 33.3, 20, 10, 2, 0.2, 0.02, 0.002, or 0 μM AA92593, 0.5% dimetyl sulfoxide (DMSO), and 4% (vol/vol) GloSensor cAMP reagent stock solution. […] Then, the cells were incubated at room temperature for 1 h, and luminescence changes were monitored. After incubation of the cells with AA92593, luminescence measurement was interrupted, the plate was ejected, and the cells were added with 50 μl of HBSS containing 0.2 μM 9-cis-retinal. […] Luminescence was measured using GM-2000 or GM-3510 microplate reader (Promega). Luminescence level of each well was measured every 30 s with integration time of 0.6 to 0.9 s. To illuminate opsins, luminescence measurement was interrupted, the plate was ejected, and the plate was illuminated by white light with CN-160 LED video light (light intensity, ∼9 mW/cm^2) (NEEWER). […] After illumination, luminescence measurement was resumed. The measured luminescence levels were normalized to the level at the starting point (time = 0 min). […]

[2] = test system: lanceolatum melanopsin I207^5.42L mutant
Text: as §1, §2, §3

[3] = test system: lanceolatum melanopsin A269^6.52S mutant
Text: as §1, §2, §3

[4] = test system: lanceolatum melanopsin I207^5.42F mutant
Text: as §1, §2, §3

COc1ccc(S(=O)(=O)N2CCCCC2)cc1C [AA92593]
increase in sensitivity to AA92593 vs WT [1]: ~21%
change in sensitivity to AA92593 vs WT [2]: little changes
change in sensitivity to AA92593 vs WT [3]: little changes
increase in sensitivity to AA92593 vs WT [4]: ~42%
